# According to ChEMBL document CHEMBL1146460, “Caulibugulones A-F, novel cytotoxic isoquinoline quinones and iminoquinones from the marine bryozoan Caulibugula intermis” (J Nat Prod, 2004):
# Test: Cytotoxicity against wild type mouse IC2 cells after 48 hrs by MTT assay
# Settings: IC2, 48 h
row,Compound,IC50 [µg/mL]
1,CNC1=C/C(=N\CCO)c2ccncc2C1=O [CAULIBUGULONE F],0.1
2,CNC1=C(Cl)C(=O)c2ccncc2C1=O [CAULIBUGULONE C],0.22
3,CNC1=CC(=O)c2ccncc2C1=O [CAULIBUGULONE A],0.34
4,CNC1=CC(=N)c2ccncc2C1=O [CAULIBUGULONE E],0.03
5,CNC1=C(Br)C(=O)c2ccncc2C1=O [CAULIBUGULONE B],0.28
6,O=C1C=C(NCCO)C(=O)c2cnccc21 [CAULIBUGULONE D],1.67
